ChEMBL document CHEMBL3804808, “Discovery of a Novel 2,6-Disubstituted Glucosamine Series of Potent and Selective Hexokinase 2 Inhibitors” (ACS Med Chem Lett, 2016)

Key:
[1] = target: T1, Hexokinase-2 (Homo sapiens, UniProt P52789); assay: Inhibition of His-tagged human HK2 (17 to 916 residues) expressed in Escherichia coli BL21(DE3) using glucose as substrate after 45 mins by ADP-glo assay in presence of MgATP
T1 sequence (P52789 whole entry): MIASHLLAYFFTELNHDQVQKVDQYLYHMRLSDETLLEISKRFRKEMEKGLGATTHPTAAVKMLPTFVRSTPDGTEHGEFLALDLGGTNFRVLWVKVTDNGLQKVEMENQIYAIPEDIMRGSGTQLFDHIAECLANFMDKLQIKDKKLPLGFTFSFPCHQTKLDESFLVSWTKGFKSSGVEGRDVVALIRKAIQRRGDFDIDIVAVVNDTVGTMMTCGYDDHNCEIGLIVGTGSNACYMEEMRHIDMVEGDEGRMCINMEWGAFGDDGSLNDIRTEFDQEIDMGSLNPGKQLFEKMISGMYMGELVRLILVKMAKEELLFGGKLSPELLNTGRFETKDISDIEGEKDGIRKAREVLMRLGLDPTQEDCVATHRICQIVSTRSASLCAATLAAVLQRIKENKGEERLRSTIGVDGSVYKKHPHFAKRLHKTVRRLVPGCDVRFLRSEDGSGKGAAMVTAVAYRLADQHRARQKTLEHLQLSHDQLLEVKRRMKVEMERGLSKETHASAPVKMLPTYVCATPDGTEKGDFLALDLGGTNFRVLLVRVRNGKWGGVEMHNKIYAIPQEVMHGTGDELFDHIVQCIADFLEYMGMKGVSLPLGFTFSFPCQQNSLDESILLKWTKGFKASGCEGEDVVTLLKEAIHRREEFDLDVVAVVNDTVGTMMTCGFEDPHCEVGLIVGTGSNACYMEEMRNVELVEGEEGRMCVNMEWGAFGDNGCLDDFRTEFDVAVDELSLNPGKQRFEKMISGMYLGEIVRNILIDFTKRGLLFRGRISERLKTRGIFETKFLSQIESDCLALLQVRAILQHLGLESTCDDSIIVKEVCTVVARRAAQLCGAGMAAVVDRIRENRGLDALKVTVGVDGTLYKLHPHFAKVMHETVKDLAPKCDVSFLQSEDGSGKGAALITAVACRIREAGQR

[2] = target: T2, Hexokinase-1 (Homo sapiens, UniProt P19367); assay: Inhibition of His-tagged human HK1 (11 to 917 residues) expressed in Escherichia coli BL21(DE3) using glucose as substrate after 45 mins by ADP-glo assay in presence of MgATP
T2 sequence (P19367 whole entry): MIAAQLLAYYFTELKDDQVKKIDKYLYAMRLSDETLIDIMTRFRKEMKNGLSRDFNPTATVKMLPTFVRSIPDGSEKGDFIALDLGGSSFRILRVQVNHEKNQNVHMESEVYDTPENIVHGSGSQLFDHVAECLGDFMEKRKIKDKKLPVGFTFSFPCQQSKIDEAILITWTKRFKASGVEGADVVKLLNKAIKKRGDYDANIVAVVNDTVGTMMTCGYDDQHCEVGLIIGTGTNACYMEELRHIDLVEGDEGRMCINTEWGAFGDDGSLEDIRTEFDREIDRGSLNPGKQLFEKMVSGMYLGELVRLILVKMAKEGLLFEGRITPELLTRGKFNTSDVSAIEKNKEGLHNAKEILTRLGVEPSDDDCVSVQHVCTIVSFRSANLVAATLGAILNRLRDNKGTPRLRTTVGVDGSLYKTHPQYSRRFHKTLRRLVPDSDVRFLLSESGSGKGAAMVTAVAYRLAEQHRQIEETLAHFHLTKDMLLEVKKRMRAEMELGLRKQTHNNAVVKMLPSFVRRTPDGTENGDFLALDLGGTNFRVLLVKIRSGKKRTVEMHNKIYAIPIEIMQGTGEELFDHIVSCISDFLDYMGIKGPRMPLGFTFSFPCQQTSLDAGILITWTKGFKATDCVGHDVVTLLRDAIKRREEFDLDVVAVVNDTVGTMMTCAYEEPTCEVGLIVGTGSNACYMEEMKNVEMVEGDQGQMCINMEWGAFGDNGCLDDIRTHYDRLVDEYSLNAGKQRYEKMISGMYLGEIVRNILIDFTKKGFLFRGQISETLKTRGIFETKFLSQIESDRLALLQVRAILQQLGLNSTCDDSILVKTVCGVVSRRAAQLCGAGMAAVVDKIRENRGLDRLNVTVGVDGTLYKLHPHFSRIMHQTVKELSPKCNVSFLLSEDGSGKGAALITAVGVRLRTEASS

[3] = target: T1, Hexokinase-2; assay: Inhibition of HK2 in human UM-UC-3 cells using 2FDG as substrate assessed as suppression of G6P production preincubated for 30 mins followed by substrate treatment for 90 mins by resazurin assay; format: cell-based, UMUC3
[4] = target: T1, Hexokinase-2; assay: Competitive inhibition of His-tagged human HK2 (17 to 916 residues) expressed in Escherichia coli BL21(DE3) assessed as formation of G6P by continuous G6P dehydrogenase coupled assay in presence of glucose
[5] = target: T3, Hexokinase-4 (Homo sapiens, UniProt P35557); assay: Inhibition of HK4 (unknown origin)
T3 sequence (P35557 whole entry): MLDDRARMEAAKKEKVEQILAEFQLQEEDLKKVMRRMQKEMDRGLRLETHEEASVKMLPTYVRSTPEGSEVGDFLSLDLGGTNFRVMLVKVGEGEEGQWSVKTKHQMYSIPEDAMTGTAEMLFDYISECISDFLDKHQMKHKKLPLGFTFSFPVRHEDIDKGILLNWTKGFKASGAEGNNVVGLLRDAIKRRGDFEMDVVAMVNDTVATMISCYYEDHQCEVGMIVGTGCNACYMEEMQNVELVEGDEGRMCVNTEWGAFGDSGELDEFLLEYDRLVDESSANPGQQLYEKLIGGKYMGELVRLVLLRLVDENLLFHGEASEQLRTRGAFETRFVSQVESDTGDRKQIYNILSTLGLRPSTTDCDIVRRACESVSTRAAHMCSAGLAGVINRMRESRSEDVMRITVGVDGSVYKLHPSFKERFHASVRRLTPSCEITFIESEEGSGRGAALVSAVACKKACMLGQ

Structure (SMILES): COc1cc(C(=O)N[C@H]2C(O)O[C@H](CNS(=O)(=O)c3cccc(Cl)c3Cl)[C@@H](O)[C@@H]2O)cc(-c2ccc(C#N)cc2)c1 (stereo not given in full)
- IC50 [1]: 25 nM
- IC50 [2]: 7.9 nM

Structure (SMILES): O=[N+]([O-])c1cccc(S(=O)(=O)N[C@H]2C(O)O[C@H](CNS(=O)(=O)c3cccc(Cl)c3Cl)[C@@H](O)[C@@H]2O)c1 (stereo not given in full)
- IC50 [1]: 130 nM
- IC50 [2]: 10000 nM

Structure (SMILES): O=C(C=C1CCC(C(F)(F)F)CC1)N[C@H]1C(O)O[C@H](CO)[C@@H](O)[C@@H]1O (stereo not given in full)
- IC50 [1]: 16000 nM
- IC50 [2]: 160000 nM

Structure (SMILES): N#Cc1ccc(-c2cc(C(=O)N[C@H]3C(O)O[C@H](CO)[C@@H](O)[C@@H]3O)cc(C(F)(F)F)c2)cc1 (stereo not given in full)
- IC50 [1]: 790 nM
- IC50 [2]: 40 nM

Structure (SMILES): O=C(N[C@H]1C(O)O[C@H](CNS(=O)(=O)c2ccccc2Cl)[C@@H](O)[C@@H]1O)c1cccc(-c2ccccc2)c1 (stereo not given in full)
- IC50 [1]: 100 nM
- IC50 [2]: 16 nM

Structure (SMILES): Cc1oc(S(=O)(=O)NC[C@H]2OC(O)[C@H](NC(=O)c3cccc(Br)c3)[C@@H](O)[C@@H]2O)cc1C(=O)O (stereo not given in full)
- IC50 [1]: 10 nM
- IC50 [2]: 20 nM

Structure (SMILES): O=C(N[C@H]1C(O)O[C@H](CNS(=O)(=O)c2cnccc2Cl)[C@@H](O)[C@@H]1O)c1cccc(-c2ccccc2)c1 (stereo not given in full)
- IC50 [1]: 100 nM
- IC50 [2]: 20 nM

Structure (SMILES): O=S(=O)(N[C@H]1C(O)O[C@H](CNS(=O)(=O)c2cccc(Cl)c2Cl)[C@@H](O)[C@@H]1O)c1ccc(Cl)s1 (stereo not given in full)
- IC50 [3]: 520 nM
- IC50 [1]: 130 nM
- IC50 [2]: 63000 nM

Structure (SMILES): O=C(N[C@H]1C(O)O[C@H](CO)[C@@H](O)[C@@H]1O)c1cccc(-c2ccccc2)c1 (stereo not given in full)
- IC50 [1]: 3200 nM
- IC50 [2]: 790 nM

Structure (SMILES): O=C(N[C@H]1C(O)O[C@H](CNS(=O)(=O)c2cccc(Cl)c2)[C@@H](O)[C@@H]1O)c1cccc(-c2ccccc2)c1 (stereo not given in full)
- IC50 [1]: 320 nM
- IC50 [2]: 160 nM

Structure (SMILES): O=S(=O)(N[C@H]1C(O)O[C@H](CNS(=O)(=O)c2cccc(Cl)c2Cl)[C@@H](O)[C@@H]1O)c1cccc(-c2ccccc2)c1 (stereo not given in full)
- IC50 [3]: 470 nM
- IC50 [1]: 25 nM
- IC50 [2]: 5000 nM

Structure (SMILES): O=C(/C=C/c1ccc(Cl)c(Cl)c1)N[C@H]1C(O)O[C@H](CO)[C@@H](O)[C@@H]1O (stereo not given in full)
- Ki [4]: 2900 nM
- IC50 [1]: 6300 nM
- IC50 [2]: 2000 nM

Structure (SMILES): O=C(O)c1cccc(S(=O)(=O)NC[C@H]2OC(O)[C@H](NC(=O)c3cccc(-c4ccccc4)c3)[C@@H](O)[C@@H]2O)c1 (stereo not given in full)
- IC50 [1]: 50 nM
- IC50 [2]: 25 nM

Structure (SMILES): O=C(/C=C/c1ccc(Cl)c(Cl)c1)N[C@H]1CO[C@H](CO)[C@@H](O)[C@@H]1O
- IC50 [1]: > 400000 nM
- IC50 [2]: > 200000 nM

Structure (SMILES): O=C(N[C@H]1C(O)O[C@H](CNS(=O)(=O)c2ccccc2)[C@@H](O)[C@@H]1O)c1cccc(-c2ccccc2)c1 (stereo not given in full)
- IC50 [1]: 790 nM
- IC50 [2]: 160 nM

Structure (SMILES): O=C(N[C@H]1C(O)O[C@H](CO)[C@@H](O)[C@@H]1O)c1cc([N+](=O)[O-])cc([N+](=O)[O-])c1 (stereo not given in full)
- IC50 [1]: 2000 nM
- IC50 [2]: 2000 nM

Structure (SMILES): COC1O[C@H](CO)[C@@H](O)[C@H](O)[C@H]1NC(=O)/C=C/c1ccc(Cl)c(Cl)c1 (stereo not given in full)
- IC50 [1]: > 400000 nM
- IC50 [2]: > 200000 nM

Structure (SMILES): O=C(N[C@H]1C(O)O[C@H](CNS(=O)(=O)c2cccc(Cl)c2Cl)[C@@H](O)[C@@H]1O)c1cccc(-c2ccccc2)c1 (stereo not given in full)
- IC50 [5]: 3.5 µM
- IC50 [3]: 200 nM
- IC50 [1]: 25 nM
- IC50 [2]: 32 nM

Structure (SMILES): COC(=O)c1cc(S(=O)(=O)NC[C@H]2OC(O)[C@H](NC(=O)c3cccc(Br)c3)[C@@H](O)[C@@H]2O)oc1C (stereo not given in full)
- IC50 [1]: 630 nM
- IC50 [2]: 1600 nM

Structure (SMILES): N#Cc1ccc(S(=O)(=O)NC[C@H]2OC(O)[C@H](NC(=O)c3cccc(-c4ccccc4)c3)[C@@H](O)[C@@H]2O)cc1 (stereo not given in full)
- IC50 [1]: 130 nM
- IC50 [2]: 7.9 nM

Structure (SMILES): O=S(=O)(N[C@H]1C(O)O[C@H](CNS(=O)(=O)c2cccc(Cl)c2Cl)[C@@H](O)[C@@H]1O)c1ccc(Cl)c(Cl)c1 (stereo not given in full)
- IC50 [1]: 50 nM
- IC50 [2]: > 20000 nM

Structure (SMILES): O=S(=O)(N[C@H]1C(O)O[C@H](CNS(=O)(=O)c2cccc(Cl)c2Cl)[C@@H](O)[C@@H]1O)c1cccc(-c2ccc(Cl)cc2)c1 (stereo not given in full)
- IC50 [1]: 7.9 nM
- IC50 [2]: 1000 nM

Structure (SMILES): O=C(N[C@H]1C(O)O[C@H](CNS(=O)(=O)c2cccc(Cl)c2Cl)[C@@H](O)[C@@H]1O)c1ccc(Cl)s1 (stereo not given in full)
- IC50 [1]: 40 nM
- IC50 [2]: 2000 nM

Structure (SMILES): O=C(N[C@H]1C(O)O[C@H](CO)[C@@H](O)[C@@H]1O)c1ccc(-c2ccccc2)cc1 (stereo not given in full)
- IC50 [1]: 16000 nM
- IC50 [2]: 13000 nM

Structure (SMILES): Cc1ccc(S(=O)(=O)NC[C@H]2OC(O)[C@H](NC(=O)/C=C/c3ccc(Cl)c(Cl)c3)[C@@H](O)[C@@H]2O)cc1 (stereo not given in full)
- IC50 [1]: 2000 nM
- IC50 [2]: 2000 nM
